Results taken from patent publication US20220211603A1, “Oral Compositions And Methods Of Use” (3M INNOVATIVE PROPERTIES COMPANY, priority 2019, published 2022).

System: Streptococcus mutans (ATCC 25175) biofilm
Test: MBEC Biofilm Disruption Assay
Format: cell-based
Details: glucosamine HCl combined with MEGA-9 in water
Excerpt: In some embodiments, disclosed compositions can prevent, inhibit, disrupt the formation or maintenance of a biofilm in an area contacted with the composition. The area contacted can be in vivo or in vitro. In some embodiments, a composition can prevent, inhibit, disrupt the formation or maintenance of a biofilm in a mouth of a user where the composition was applied to the mouth, for example via spraying the composition into the mouth when compared to a mouth without the composition applied thereto. […] Preventing, inhibiting, disrupting, or some combination thereof the formation or maintenance of biofilms can be measured using a modified version of the MBEC assay (described in ASTM […]-12), which measures disruption of Streptococcus mutans biofilms grown on special pegs in a microtiter plate. […] The biofilm remaining on each peg following treatment is quantified by measuring the amount of fluorescently labeled bacteria that eluted from the pegs at the end of the treatment cycles (see example). […] Decreasing plaque buildup can be measured by a variety of methods in vivo including for example plaque scoring, dyeing of plaque, etc. […] Control wells for fluorescence readings were also filled with 150 microliter of phosphate-buffered saline (PBS) or non-bacteria-containing media consisting of BHI with 1% sucrose and 1 micromolar ALEXA FLUOR 488 dextran. […]

## Cl.N[C@H]1C(O)O[C@H](CO)[C@@H](O)[C@@H]1O (stereo partly shown) [Glucosamine HCl]
  effect on biofilm disruption of MEGA-9 (in words): enhanced the biofilm disruption effect of MEGA-9
